# Tests used:
# Test in all cases: relative viability (nuclei count vs DMSO), 5 days (fraction); higher = more cells survive
# [1] = compound: COC1=CC=C(C=C1)CN2C=CC3=C2C=C(C=C3)C(=O)NO + COc1cccc2cc(-c3nc([C@H]4CC[C@H](C(=O)O)CC4)n4ncnc(N)c34)[nH]c12 [OSI-027] (partner 0.5 µM)
# How it was run: (§1)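 Lung cancer cell lines were seeded in 1536-well plates and dosed by pin tool the next day, with either a single drug or a fixed anchor-drug dose combined with five library-drug doses (not always all listed) spaced in √10 steps. Five days later, one step fixed the cells and stained their nuclei (final 0.05% Triton X-100, 1% formaldehyde, 1 ug/ml Hoechst), and nuclei were counted on 4× images. Relative viability is the nuclei count in treated wells divided by the count in vehicle wells, and each value is the median of duplicate plates.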
# [2] = compound: COC1=CC=C(C=C1)CN2C=CC3=C2C=C(C=C3)C(=O)NO + Cc1cc(Nc2cc(N3CCN(C)CC3)nc(Sc3ccc(NC(=O)C4CC4)cc3)n2)n[nH]1 [Tozasertib] (partner 0.1 µM)
# How it was run: as §1
# [3] = compound: COC1=CC=C(C=C1)CN2C=CC3=C2C=C(C=C3)C(=O)NO + NC(=O)Nc1cc(-c2cccc(F)c2)sc1C(=O)N[C@H]1CCCNC1 [AZD7762] (partner 0.2 µM)
# How it was run: as §1
# Veliparib + Alpelisib = compound: C[C@]1(c2nc3c(C(N)=O)cccc3[nH]2)CCCN1 [Veliparib] + Cc1nc(NC(=O)N2CCC[C@H]2C(N)=O)sc1-c1ccnc(C(C)(C)C(F)(F)F)c1 [Alpelisib] (partner 2 µM)
# How it was run: as §1
Cell Line,relative viability ([1]; first compound 0.08 µM),relative viability ([1]; first compound 0.253 µM),relative viability ([1]; first compound 0.8 µM),relative viability ([1]; first compound 2.53 µM),relative viability ([1]; first compound 8 µM),relative viability ([2]; first compound 0.08 µM),relative viability ([2]; first compound 0.253 µM),relative viability ([2]; first compound 0.8 µM),relative viability ([2]; first compound 2.53 µM),relative viability ([2]; first compound 8 µM),relative viability ([3]; first compound 0.08 µM),relative viability ([3]; first compound 0.253 µM),relative viability ([3]; first compound 0.8 µM),relative viability ([3]; first compound 2.53 µM),relative viability ([3]; first compound 8 µM),relative viability (Veliparib + Alpelisib; first compound 0.02 µM),relative viability (Veliparib + Alpelisib; first compound 0.06325 µM),relative viability (Veliparib + Alpelisib; first compound 0.2 µM),relative viability (Veliparib + Alpelisib; first compound 0.6325 µM),relative viability (Veliparib + Alpelisib; first compound 2 µM)
HOP-62,0.729,0.888,0.909,0.871,0.758,0.304,0.353,0.392,0.33,0.349,0.358,0.691,0.72,0.554,0.484,1.11,0.928,1.15,0.836,0.785
LC-2-ad,0.793,0.853,0.826,0.979,0.671,0.384,0.46,0.485,0.411,0.382,0.905,0.874,0.865,0.898,0.835,,0.783,0.846,0.926,0.897
EKVX,0.669,0.653,0.72,0.72,0.64,0.374,0.369,0.409,0.372,0.36,,0.637,0.699,0.803,0.712,0.784,0.867,0.85,0.837,0.902
LCLC-103H,0.441,0.529,0.534,0.388,0.397,0.445,0.523,0.489,0.534,0.433,0.764,0.851,0.809,0.851,0.679,1.13,0.896,0.936,1.06,0.949
LU99A,,0.326,0.295,0.259,0.258,,0.254,0.298,0.277,0.298,,0.392,0.384,0.276,0.208,0.504,0.459,0.544,0.509,0.569
NCI-H1437,0.774,0.907,0.897,0.807,0.907,0.321,0.446,0.395,0.42,0.409,1.02,1.13,1.03,1.13,1.1,0.898,0.977,0.98,0.921,0.889
HARA,,0.522,0.535,0.553,0.42,,0.109,0.114,0.128,0.0964,,0.588,0.397,0.251,0.202,0.943,0.769,0.921,0.827,0.822
NCI-H1666,0.818,0.906,0.873,0.946,0.85,0.498,0.622,0.571,0.641,0.628,0.799,0.872,0.782,0.784,0.765,1.04,0.709,0.857,0.829,1
CAL-12T,0.723,0.643,0.563,0.71,0.642,0.293,0.344,0.362,0.328,0.323,0.572,0.537,0.647,0.675,0.589,1.23,1.05,1.4,1.12,1.24
HCC-366,0.486,1.03,0.978,0.896,0.772,0.0975,0.116,0.124,0.354,0.0739,0.239,0.265,0.302,0.235,0.203,0.452,0.234,0.365,0.384,0.411
NCI-H1975,0.724,0.703,0.742,0.723,0.638,0.69,0.852,0.707,0.692,0.551,0.655,0.766,0.775,0.768,0.576,0.64,0.657,0.685,0.605,0.632
NCI-H460,0.547,0.721,0.664,0.607,0.595,0.309,0.381,0.422,0.411,0.195,0.536,0.485,0.588,0.614,0.515,,0.342,0.539,0.347,0.441
NCI-H2170,0.708,0.725,0.8,0.81,0.609,0.439,0.869,0.694,0.729,0.616,0.859,0.797,0.849,0.826,0.711,0.826,0.806,0.931,0.786,0.764
NCI-H1355,,0.409,0.463,0.457,0.38,,0.548,0.585,0.531,0.515,0.392,0.817,0.745,0.761,0.574,,0.739,0.846,0.692,0.816
NCI-H1755,0.632,0.746,0.732,0.732,0.708,0.512,0.688,0.619,0.584,0.524,0.395,0.439,0.497,0.516,0.35,0.898,0.939,0.942,0.881,0.922
HCC-78,0.4,0.344,0.341,0.355,0.366,0.34,0.329,0.397,0.395,0.38,0.575,1.21,0.589,0.512,0.496,0.455,0.406,0.387,0.36,0.322
NCI-H2405,0.633,0.65,0.638,0.664,0.606,0.523,0.807,0.716,0.689,0.656,0.706,,0.85,0.796,0.505,,0.776,0.808,0.769,0.817

Cell Line,relative viability ([1]; first compound 0.08 µM),relative viability ([1]; first compound 0.253 µM),relative viability ([1]; first compound 0.8 µM),relative viability ([1]; first compound 2.53 µM),relative viability ([1]; first compound 8 µM),relative viability ([2]; first compound 0.08 µM),relative viability ([2]; first compound 0.253 µM),relative viability ([2]; first compound 0.8 µM),relative viability ([2]; first compound 2.53 µM),relative viability ([2]; first compound 8 µM),relative viability ([3]; first compound 0.08 µM),relative viability ([3]; first compound 0.253 µM),relative viability ([3]; first compound 0.8 µM),relative viability ([3]; first compound 2.53 µM),relative viability ([3]; first compound 8 µM),relative viability (Veliparib + Alpelisib; first compound 0.02 µM),relative viability (Veliparib + Alpelisib; first compound 0.06325 µM),relative viability (Veliparib + Alpelisib; first compound 0.2 µM),relative viability (Veliparib + Alpelisib; first compound 0.6325 µM),relative viability (Veliparib + Alpelisib; first compound 2 µM)
NCI-H2085,0.888,0.754,0.746,0.982,0.731,0.859,0.817,0.96,0.907,0.751,0.971,0.953,1.07,1,0.942,1.07,0.977,0.843,0.875,0.966
LXF-289,,0.823,0.896,0.908,0.716,,0.231,0.164,0.195,0.182,,1.06,1.04,1.07,1.02,1.02,1.02,0.997,1.01,1.06
EPLC-272H,0.223,,0.313,0.257,0.267,0.135,,0.346,0.235,0.272,,0.253,0.196,0.229,0.185,,0.951,1.1,0.901,0.924
NCI-H647,0.531,0.752,0.49,0.634,0.492,0.224,0.237,0.314,0.262,0.267,,0.437,0.495,0.361,0.369,1.38,1.07,1.42,1.22,1.11
NCI-H2347,0.479,0.433,0.473,0.481,0.402,0.463,0.415,0.613,0.611,0.503,0.598,0.748,0.967,0.732,0.677,1.01,0.946,1.01,0.957,1.02
A-427,,0.44,0.497,0.492,0.367,,0.234,0.212,0.202,0.185,0.544,,0.671,0.696,0.476,1.1,1.01,1.06,1.06,1.14
NCI-H1993,0.525,0.626,0.53,0.571,0.521,0.568,0.627,0.517,0.6,0.567,0.746,0.745,0.857,0.8,0.85,0.655,0.615,0.726,0.639,0.75
NCI-H2087,0.626,0.632,0.592,0.561,0.347,0.253,0.293,0.246,0.294,0.234,1.31,1.24,1.5,1.17,1.25,1.05,1.02,1.09,1.07,1.04
LCLC-97TM1,0.346,0.531,0.546,0.342,0.374,0.16,0.219,0.193,0.196,0.209,,0.267,0.205,0.162,0.188,0.263,0.271,0.258,,0.232
HCC-827,0.766,0.712,0.81,0.791,0.761,0.405,0.427,0.442,0.416,0.415,0.228,0.259,0.159,0.218,0.196,0.922,1.02,0.986,0.971,0.899
NCI-H1915,0.564,0.656,0.643,0.599,0.532,0.259,0.431,0.422,0.355,0.401,0.494,0.712,0.676,0.705,0.606,1.03,1.02,0.976,0.898,0.926
NCI-H650,0.524,0.494,0.52,0.526,0.438,0.595,0.69,0.786,0.673,0.672,0.944,0.686,0.816,1.1,0.763,1.28,0.983,1.23,0.999,1.2
HCC-44,0.465,0.453,0.498,0.554,0.454,0.803,0.909,0.946,0.863,0.792,0.938,1.01,0.99,1.01,1.04,0.807,0.648,0.844,0.762,0.803
PC-14,0.89,0.87,0.739,0.857,0.658,0.302,0.548,0.561,0.638,0.486,0.263,0.276,0.393,0.315,0.381,0.923,0.862,0.796,0.886,0.893
RERF-LC-KJ,0.589,0.594,0.662,0.617,0.495,0.427,0.494,0.499,0.49,0.388,0.888,0.773,0.918,0.948,0.967,0.715,0.891,0.96,0.761,0.74
LK-2,,0.289,0.244,0.195,0.208,,0.196,0.197,0.157,0.174,,0.439,0.45,0.352,0.375,,1.01,1.38,0.996,1.1
NCI-H1793,,0.296,0.267,0.328,0.248,,0.337,0.297,0.398,0.3,,0.726,0.444,0.557,0.406,0.819,0.582,0.755,0.661,0.69

# From the supplement of paper PMC10307832
